# Columns and labels:
# Test in all cases: relative viability (nuclei count vs DMSO), 5 days (fraction); higher = more cells survive
# Seliciclib + Foretinib = compound: CC[C@H](CO)Nc1nc(NCc2ccccc2)c2ncn(C(C)C)c2n1 [Seliciclib] + COc1cc2c(Oc3ccc(NC(=O)C4(C(=O)Nc5ccc(F)cc5)CC4)cc3F)ccnc2cc1OCCCN1CCOCC1 [Foretinib] (partner 0.25 µM)
# Summary of the method: (§1)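 Cells from lung cancer lines were seeded into 1536-well plates and, one day later, dosed by pin tool. Treatments were either a single drug or a fixed dose of an anchor drug with five library-drug doses (not always all listed) in √10 steps. After 5 days, nuclei were stained in a one-step fixation (final 0.05% Triton X-100, 1% formaldehyde, 1 ug/ml Hoechst) and counted on 4× images, and relative viability is the treated-to-vehicle nuclei ratio, as the median of duplicate plates.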
# Seliciclib + Decitabine = compound: CC[C@H](CO)Nc1nc(NCc2ccccc2)c2ncn(C(C)C)c2n1 [Seliciclib] + Nc1ncn([C@H]2C[C@H](O)[C@@H](CO)O2)c(=O)n1 [Decitabine] (partner 2 µM)
# Summary of the method: as §1
# Seliciclib + Dasatinib = compound: CC[C@H](CO)Nc1nc(NCc2ccccc2)c2ncn(C(C)C)c2n1 [Seliciclib] + Cc1nc(Nc2ncc(C(=O)Nc3c(C)cccc3Cl)s2)cc(N2CCN(CCO)CC2)n1 [Dasatinib] (partner 0.075 µM)
# Summary of the method: as §1
# Seliciclib + Luminespib = compound: CC[C@H](CO)Nc1nc(NCc2ccccc2)c2ncn(C(C)C)c2n1 [Seliciclib] + CCNC(=O)c1noc(-c2cc(C(C)C)c(O)cc2O)c1-c1ccc(CN2CCOCC2)cc1 [Luminespib] (partner 0.01 µM)
# Summary of the method: as §1
Cell Line,relative viability (Seliciclib + Foretinib; first compound 0.08 µM),relative viability (Seliciclib + Foretinib; first compound 0.253 µM),relative viability (Seliciclib + Foretinib; first compound 0.8 µM),relative viability (Seliciclib + Foretinib; first compound 2.53 µM),relative viability (Seliciclib + Foretinib; first compound 8 µM),relative viability (Seliciclib + Decitabine; first compound 0.08 µM),relative viability (Seliciclib + Decitabine; first compound 0.8 µM),relative viability (Seliciclib + Decitabine; first compound 2.53 µM),relative viability (Seliciclib + Decitabine; first compound 8 µM),relative viability (Seliciclib + Dasatinib; first compound 0.08 µM),relative viability (Seliciclib + Dasatinib; first compound 0.253 µM),relative viability (Seliciclib + Dasatinib; first compound 0.8 µM),relative viability (Seliciclib + Dasatinib; first compound 2.53 µM),relative viability (Seliciclib + Dasatinib; first compound 8 µM),relative viability (Seliciclib + Luminespib; first compound 0.08 µM),relative viability (Seliciclib + Luminespib; first compound 0.253 µM),relative viability (Seliciclib + Luminespib; first compound 0.8 µM),relative viability (Seliciclib + Luminespib; first compound 2.53 µM),relative viability (Seliciclib + Luminespib; first compound 8 µM),relative viability (Seliciclib + Decitabine; first compound 0.253 µM)
NCI-H2170,0.936,0.934,1.01,1.09,0.968,0.453,0.452,0.537,0.442,0.547,0.464,0.472,0.636,0.52,0.738,0.552,0.729,1.04,0.714,–
NCI-H2342,0.91,0.882,1.06,1.14,0.935,0.668,0.736,0.649,0.747,0.328,0.336,0.313,0.301,0.319,0.658,0.525,0.662,0.699,0.648,0.637
NCI-H2347,1.18,1.23,0.938,–,0.738,0.66,0.597,0.602,0.597,0.323,0.35,0.209,0.248,0.302,0.428,0.328,0.512,0.412,0.721,0.522
NCI-H2405,1.06,1.16,1.07,0.836,0.939,0.758,0.742,0.63,0.716,0.211,0.219,0.197,0.171,0.212,0.676,0.661,0.799,0.385,0.548,0.68
NCI-H3122,1.03,–,0.938,0.983,0.786,0.399,0.479,0.472,0.294,0.719,–,0.787,0.679,0.812,0.0896,–,0.1,0.0781,0.11,0.234
PC-3 [JPC-3],1.07,1.09,0.997,0.997,0.809,0.819,0.906,0.809,0.767,1.04,1,0.982,0.936,0.946,0.81,0.584,0.63,0.605,0.66,0.883
PC-14,0.884,0.971,0.902,0.997,0.843,0.211,0.222,0.252,0.25,0.288,0.396,0.269,0.215,0.23,0.179,–,0.114,0.135,0.203,0.228
RERF-LC-KJ,0.828,0.748,0.83,0.922,0.803,0.711,0.737,0.637,0.65,0.908,0.841,0.902,0.627,0.617,1.29,1.07,1.21,1.28,0.859,0.671
SK-LU-1,0.832,0.785,0.83,0.914,0.654,0.614,0.649,0.614,0.542,0.173,0.184,0.183,0.142,0.141,0.204,0.209,0.207,0.187,0.21,0.544
SK-MES-1,0.891,0.889,0.771,0.903,0.862,0.386,0.349,0.451,0.458,0.395,0.504,0.386,0.231,0.344,0.814,0.854,0.733,1.1,0.601,0.371
SW 900,0.802,0.995,0.784,0.765,0.891,0.45,0.457,0.478,0.346,0.541,0.593,0.661,0.397,0.559,0.148,0.147,0.14,0.17,0.168,0.403
SW 1573,0.879,1.01,0.946,0.65,0.739,0.497,0.474,0.408,0.663,0.608,0.525,0.524,0.35,0.301,0.727,0.431,0.219,0.197,0.243,0.515
UMC-11,1.05,0.87,1.01,0.939,0.784,0.542,0.612,0.606,0.526,0.517,0.52,0.491,0.507,0.458,0.963,0.78,1.09,1.06,0.829,0.392

# Source: the supplement of paper PMC10307832
